Assay results: patent EP0394122A2, “Use of tetracyclines to manufacture a medicament for the treatment and prevention of AIDS” (priority 1989, dated 1990)

Test system: virus HIV (LAV-1-BRU)
Assay: Protection against the cytopathogenic effect of HIV in infected CEM clone 13 cells (MTT viability)
Assay type: cell-based
Experimental: Le test est réalisé sur la lignée lymphoblastoïde CEM clone 13. Dans une microplaque de 96 puits on dépose 25 µl/puits d'une solution de produit à tester ou de tampon phosphate isotonique (TPI) dans le cas des contrôles. Les produits sont étudiés à différentes concentrations (souvent 8), à raison de 4 puits par concentration. On ajoute alors 125 µl d'une suspension de cellules CEM dans le milieu RPMI contenant 10 % de sérum de veau foetal, 40 U/ml de pénicilline, 40 µg/ml de streptomycine et 5 µg/ml de polybrène (3500 cellules par puits) et les microplaques sont incubées une heure à 37°C, sous une atmosphère contenant 5 % de gaz carbonique. Pour chaque concentration, l'essai est partagé en 2 parties : une partie sur cellules infectées, pour la détermination de l'activité antivirale et l'autre partie sur cellules non infectées, pour déterminer la cytotoxicité des produits. On infecte alors la première série avec HIV (100 µl par puit d'une suspension de virus LAV-1-BRU contenant 200-300 TCID50) tandis que l'autre série reçoit 100 µl de milieu RPMI tel que défini précédemment. Au bout de 7 jours d'incubation, 175 µl de surnageant sont prélevés et rejetés. La viabilité cellulaire est déterminée selon une modification de la technique décrite par R. Pauwels et coll., J. Virol. Meth., 20, 309-321 (1988).
Les puits, contenant encore les cellules (infectées ou non infectées), reçoivent 10 µl d'une solution de MTT (méthylthiazoletétrazolium) à 5 mg/ml dans du tampon phosphate isotonique. Pendant une période d'incubation de 4 heures, le MTT est converti en un sel de formazan (bleu) à l'intérieur des cellules vivantes et proportionnellement à leur nombre, alors que rien n'apparaît dans les puits ne contenant plus que des cellules mortes. On ajoute alors 120 µl d'isopropanol (contenant 0,04 mole/l d'acide chlorhydrique) et les microplaques sont agitées jusqu'à la solubilisation du bleu de formazan. L'absorption à 540 nm est lue avec un lecteur automatique de réactions ELISA en microplaques.
Pour les essais de plus longue durée, on procède comme décrit précédemment jusqu'au jour 7. A ce moment, 100 µl de cellules sont prélevés pour mesurer la proportion de cellules vivantes et le restant est remis en culture avec du milieu frais contenant les produits aux mêmes concentrations. Cette opération est répétée tous les 4 jours.

Molecule	Cellules infectées Densité optique (0,01 µg/ml, JOUR 14)	Cellules infectées Densité optique (0,01 µg/ml, JOUR 18)	Cellules infectées Densité optique (0,01 µg/ml, day 7)	Cellules infectées Densité optique (0,04 µg/ml, JOUR 14)	Cellules infectées Densité optique (0,04 µg/ml, JOUR 18)	Cellules infectées Densité optique (0,04 µg/ml, day 7)	Cellules infectées Densité optique (0,12 µg/ml, JOUR 14)	Cellules infectées Densité optique (0,12 µg/ml, JOUR 18)	Cellules infectées Densité optique (0,12 µg/ml, day 7)	Cellules infectées Densité optique (0,37 µg/ml, JOUR 14)	Cellules infectées Densité optique (0,37 µg/ml, JOUR 18)	Cellules infectées Densité optique (0,37 µg/ml, day 7)	Cellules infectées Densité optique (10 µg/ml, JOUR 14)	Cellules infectées Densité optique (10 µg/ml, JOUR 18)	Cellules infectées Densité optique (10 µg/ml, day 7)	Cellules infectées Densité optique (30 µg/ml, day 7)	Cellules infectées Densité optique (1,11 µg/ml, JOUR 14)	Cellules infectées Densité optique (1,11 µg/ml, JOUR 18)	Cellules infectées Densité optique (1,11 µg/ml, day 7)	Cellules infectées Densité optique (3,33 µg/ml, JOUR 14)	further results
doxycycline [Exemple 2]	0,250	0,240	0,820	0,300	0,275	0,785	0,450	0,250	0,720	0,550	0,300	1,000	0,100	0,100	0,660	0,200	0,880	0,700	1,240	0,750	Cellules infectées Densité optique (3,33 µg/ml, JOUR 18): 0,750; Cellules infectées Densité optique (3,33 µg/ml, day 7): 1,370
CN(C)c1ccc(O)c2c1C[C@H]1C[C@H]3[C@H](N(C)C)C(O)=C(C(N)=O)C(=O)[C@@]3(O)C(O)=C1C2=O [Exemple 5, minocycline]	0,300	0,250	0,660	0,450	0,250	0,720	0,620	0,450	0,890	1,250	1,000	1,210	0,100	0,100	0,450	0,320	1,250	0,950	1,510	0,400	Cellules infectées Densité optique (3,33 µg/ml, JOUR 18): 0,350; Cellules infectées Densité optique (3,33 µg/ml, day 7): 1,340
